Source: the NIST ThermoML archive (doi:10.1016/j.fluid.2008.07.004)
Numbers after ± are expanded uncertainties.

Conditions: Liquid

Row | vapor or sublimation pressure (352.65 K) [kPa] | vapor or sublimation pressure (330.05 K) [kPa] | Structure (SMILES)
1 | 101.3 ± 4 | – | CCC(=O)OC [methyl propanoate]
2 | – | 101.3 ± 3.6 | COC(C)=O [methyl ethanoate]
